Assay results from patent US20080249042A1, “All-Trans-Retinol: All-Trans-13,14-Dihydroretinol Saturase and Methods of Its Use” (UNIVERSITY OF WASHINGTON, priority 2004, published 2008).

What was measured:
CYP26A1 = molecular target: T1, CYP26A1 (Mus musculus, UniProt O55127); settings: 0.1 mM, 4 h, cells in culture
T1 sequence (O55127 1-497): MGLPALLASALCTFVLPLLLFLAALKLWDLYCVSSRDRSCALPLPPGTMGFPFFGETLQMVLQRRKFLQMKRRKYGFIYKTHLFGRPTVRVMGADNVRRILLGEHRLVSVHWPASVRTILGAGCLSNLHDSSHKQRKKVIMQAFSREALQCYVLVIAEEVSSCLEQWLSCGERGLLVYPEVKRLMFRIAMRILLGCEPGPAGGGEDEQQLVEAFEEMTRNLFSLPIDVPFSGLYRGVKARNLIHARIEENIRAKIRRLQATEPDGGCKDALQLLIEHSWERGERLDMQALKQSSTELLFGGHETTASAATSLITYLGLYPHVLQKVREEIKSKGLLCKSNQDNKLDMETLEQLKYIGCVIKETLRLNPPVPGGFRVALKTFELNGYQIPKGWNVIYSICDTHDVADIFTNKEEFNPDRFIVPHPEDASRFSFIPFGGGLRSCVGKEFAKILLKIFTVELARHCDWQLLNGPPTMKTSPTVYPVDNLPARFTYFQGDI
Description: (§1) CYP26A1 Oxidation Assay. […] After 24 h, the transfected cells were split into 12-well plates to ensure an equal number of transfected cells in each assay well. […] The peaks were identified based on their spectra and coelution with standards. The cell lysate was examined for expression of CYP26A1, -B1, and -C1 by SDS-PAGE and immunoblotting of the V5 epitope-tagged recombinant protein using an anti-V5 epitope monoclonal antibody (Invitrogen).

CYP26B1 = molecular target: T2, CYP26B1 (Mus musculus, UniProt Q811W2); settings: 0.1 mM, 4 h, cells in culture
T2 sequence (Q811W2 1-512): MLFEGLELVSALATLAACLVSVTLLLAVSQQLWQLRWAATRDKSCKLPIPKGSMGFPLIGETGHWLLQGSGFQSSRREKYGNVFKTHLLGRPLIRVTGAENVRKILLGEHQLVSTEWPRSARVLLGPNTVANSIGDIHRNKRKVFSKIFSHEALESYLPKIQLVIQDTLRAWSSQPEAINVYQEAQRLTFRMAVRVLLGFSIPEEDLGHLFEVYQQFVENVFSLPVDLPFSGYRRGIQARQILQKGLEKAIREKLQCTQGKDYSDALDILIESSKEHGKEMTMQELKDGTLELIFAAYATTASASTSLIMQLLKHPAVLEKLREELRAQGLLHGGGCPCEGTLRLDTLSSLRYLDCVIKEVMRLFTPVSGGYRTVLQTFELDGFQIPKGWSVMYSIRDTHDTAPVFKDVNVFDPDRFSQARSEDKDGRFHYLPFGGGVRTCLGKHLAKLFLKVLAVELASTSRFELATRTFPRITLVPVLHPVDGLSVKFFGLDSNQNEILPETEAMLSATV
Description: as §1

CYP26C1 = molecular target: T3, CYP26C1 (Mus musculus, UniProt B2RXA7); settings: 0.1 mM, 4 h, cells in culture
T3 sequence (B2RXA7 1-518): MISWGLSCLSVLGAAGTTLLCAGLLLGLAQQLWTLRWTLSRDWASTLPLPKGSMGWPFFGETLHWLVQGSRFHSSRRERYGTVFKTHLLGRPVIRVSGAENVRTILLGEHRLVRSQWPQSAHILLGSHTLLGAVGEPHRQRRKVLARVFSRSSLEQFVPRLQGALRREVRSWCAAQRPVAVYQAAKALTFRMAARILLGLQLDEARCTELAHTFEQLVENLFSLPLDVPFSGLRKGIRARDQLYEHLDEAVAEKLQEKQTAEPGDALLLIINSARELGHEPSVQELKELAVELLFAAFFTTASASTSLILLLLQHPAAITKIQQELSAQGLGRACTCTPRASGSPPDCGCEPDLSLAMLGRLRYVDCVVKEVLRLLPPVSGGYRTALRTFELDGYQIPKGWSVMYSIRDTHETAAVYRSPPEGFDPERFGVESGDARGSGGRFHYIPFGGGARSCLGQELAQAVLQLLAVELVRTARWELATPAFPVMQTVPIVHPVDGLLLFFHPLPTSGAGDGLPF
Description: as §1

prRDH = molecular target: T4, prRDH (Homo sapiens, UniProt Q9NYR8); experiment: Oxidation by photoreceptor-specific RDH; assay type: biochemical; settings: results not shown
T4 sequence (Q9NYR8 1-311): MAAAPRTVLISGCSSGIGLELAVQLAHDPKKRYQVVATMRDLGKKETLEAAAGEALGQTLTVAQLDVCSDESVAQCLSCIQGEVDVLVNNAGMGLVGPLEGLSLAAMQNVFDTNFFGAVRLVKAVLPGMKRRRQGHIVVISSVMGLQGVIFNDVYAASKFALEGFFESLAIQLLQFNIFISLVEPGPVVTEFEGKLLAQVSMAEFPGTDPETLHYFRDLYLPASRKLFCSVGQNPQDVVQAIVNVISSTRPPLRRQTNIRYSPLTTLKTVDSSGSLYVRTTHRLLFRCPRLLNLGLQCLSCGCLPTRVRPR

[1] = Conversion of DROL to DRA by RPE microsomes; assay type: in vitro ADME; settings: in the presence of NAD and NADP
Description: Conversion of DROL to DRA in RPE. UV-treated RPE microsomes were prepared as described previously. Stecher, et al. J. Biol. Chem. 274:8577-8585, 1999. Twenty μl of UV-treated RPE microsomes (3 mg/ml) were mixed with 20 μM DROL or ROL substrates, 1% bovine serum albumin, and 50 mM Tris (pH 8.8) and were incubated at 37° C. for 60 min in the presence or absence of NAD NADP cofactor mixture at 50 μM each. In order to stop the reaction, proteins were precipitated by mixing with an equal volume of CH3CN followed by high speed centrifugation. […] A boiled RPE membrane control was used to assay nonenzymatic conversion of DROL. The elution of all-trans-DROL metabolites was monitored at 290 nm.

Equine liver ADH = molecular target: T5, Equine liver ADH (Equus caballus, UniProt P00327); experiment: Oxidation using liver alcohol dehydrogenase; assay type: biochemical, horse; settings: in the presence of NAD and NADP
T5 construct: we used ADH purified from horse liver (EC 1.1.1.1 [EC]); purchased Sigma; host or cells: horse liver
T5 sequence (P00327 2-375 limits assumed): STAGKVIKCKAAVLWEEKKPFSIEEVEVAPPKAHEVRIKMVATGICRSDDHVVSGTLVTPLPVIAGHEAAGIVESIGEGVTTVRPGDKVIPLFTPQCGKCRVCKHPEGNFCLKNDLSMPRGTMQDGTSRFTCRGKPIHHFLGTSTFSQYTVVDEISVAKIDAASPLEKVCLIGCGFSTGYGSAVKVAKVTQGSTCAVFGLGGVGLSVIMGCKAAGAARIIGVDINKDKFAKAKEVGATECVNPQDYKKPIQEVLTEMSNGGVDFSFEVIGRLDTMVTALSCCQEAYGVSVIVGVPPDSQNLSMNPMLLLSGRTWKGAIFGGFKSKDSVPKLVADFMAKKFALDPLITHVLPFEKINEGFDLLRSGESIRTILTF
Description: Oxidation of All-trans-ROL and All-trans-DROL Using Liver Alcohol Dehydrogenase. Equine liver ADH (EC 1.1.1.1 [EC] ) was obtained from Sigma and dissolved in 50 mM Tris (pH 8.8) to a concentration of 5 units/ml (8.6 mg/ml). NAD and NADP were mixed together (1:1) at a concentration of 10 mM each. A substrate solution, 2 μl of 2 mM stock of all-trans-ROL or all-trans-DROL in N,N-dimethylformamide, was added to a 1.5-ml Eppendorf tube containing 20 μl of 10% bovine serum albumin, 20 μl of ADH, 2 μl of cofactor mixture, and 50 mM Tris (pH 8.8) to a total volume of 200 μl. The solutions were incubated at 37° C. for 60 min, after which 50 μl of 0.8 M NH2OH solution (pH 7.0) was added, followed by addition of 300 μl of methanol, 15 min at room temperature, and extraction with 300 μl of hexane. The organic phase was dried and analyzed by normal phase HPLC as described in the analysis of nonpolar retinoids extracted from tissue samples. As a control for the nonenzymatic reaction, boiled protein (90° C. for 5 min) was used with or without addition of cofactors.

SMILES | Oxidation to polar metabolites by CYP26A1 (CYP26A1) | Oxidation to polar metabolites by CYP26B1 (CYP26B1) | Oxidation to polar metabolites by CYP26C1 (CYP26C1) | Oxidation to the aldehyde by prRDH (prRDH) | Conversion to the acid by RPE microsomes [1] | Oxidation to the aldehyde by ADH (Equine liver ADH)
CC1=C(/C=C/C(C)=C/C=C/C(C)CC(=O)O)C(C)(C)CCC1 (stereo not drawn) [all-trans-DRA, all-trans-13,14-dihydroretinoic acid] | efficiently carried out the oxidation | efficiently carried out the oxidation | efficiently carried out the oxidation | – | – | –
CC1=C(/C=C/C(C)=C/C=C/C(C)CCO)C(C)(C)CCC1 (stereo not drawn) [all-trans-DROL, all-trans-13,14-dihydroretinol] | – | – | – | much less so | efficiently converted | efficiently carried out the conversion
CC1=C(/C=C/C(C)=C/C=C/C(C)=C/C(=O)O)C(C)(C)CCC1 [all-trans-RA, all-trans-retinoic acid, reference compound] | efficiently carried out the oxidation | efficiently carried out the oxidation | efficiently carried out the oxidation | – | – | –
CC1=C(/C=C/C(C)=C/C=C/C(C)=C/CO)C(C)(C)CCC1 [all-trans-ROL, all-trans-retinol] | – | – | – | active | catalyzed the conversion | efficiently carried out the conversion
